Entries after “also recorded” stand apart in the source; their conditions may differ. Where two headings read alike, the source gives them in different places. Numbered stars: 1 amine (or outer) side, 2 acyl side, 3 side chain; on linkers, the order of the positions; unused ones are H or OH. Bridge positions count the residues as written; N and C are the ends. Peptide text beside a SMILES is read from it. I, II: the chains in the order shown. X2 = C[C@@H](CNC(=O)N[C@@H](C)CNC(=O)N[C@@H](C)CNC(=O)N[C@@H](C)CNC(=O)[*:2])NC(=O)NC[C@H](CCC(=O)O)NC(=O)NC[C@H](Cc1ccc(O)cc1)N[*:1]; X5 = C[C@@H](CNC(=O)N[C@@H](C)CNC(=O)[*:2])NC(=O)NC[C@H](CCC(=O)O)N[*:1]; X1 = C[C@@H](CNC(=O)N[C@@H](C)CNC(=O)[*:2])NC(=O)NC[C@H](C)N[*:1]
Columns and labels:
NEP 24.11 = NEP 24.11 (Homo sapiens, UniProt P08473); assay: in vitro; conditions: pH 8
Sequence of NEP 24.11 (P08473 whole entry): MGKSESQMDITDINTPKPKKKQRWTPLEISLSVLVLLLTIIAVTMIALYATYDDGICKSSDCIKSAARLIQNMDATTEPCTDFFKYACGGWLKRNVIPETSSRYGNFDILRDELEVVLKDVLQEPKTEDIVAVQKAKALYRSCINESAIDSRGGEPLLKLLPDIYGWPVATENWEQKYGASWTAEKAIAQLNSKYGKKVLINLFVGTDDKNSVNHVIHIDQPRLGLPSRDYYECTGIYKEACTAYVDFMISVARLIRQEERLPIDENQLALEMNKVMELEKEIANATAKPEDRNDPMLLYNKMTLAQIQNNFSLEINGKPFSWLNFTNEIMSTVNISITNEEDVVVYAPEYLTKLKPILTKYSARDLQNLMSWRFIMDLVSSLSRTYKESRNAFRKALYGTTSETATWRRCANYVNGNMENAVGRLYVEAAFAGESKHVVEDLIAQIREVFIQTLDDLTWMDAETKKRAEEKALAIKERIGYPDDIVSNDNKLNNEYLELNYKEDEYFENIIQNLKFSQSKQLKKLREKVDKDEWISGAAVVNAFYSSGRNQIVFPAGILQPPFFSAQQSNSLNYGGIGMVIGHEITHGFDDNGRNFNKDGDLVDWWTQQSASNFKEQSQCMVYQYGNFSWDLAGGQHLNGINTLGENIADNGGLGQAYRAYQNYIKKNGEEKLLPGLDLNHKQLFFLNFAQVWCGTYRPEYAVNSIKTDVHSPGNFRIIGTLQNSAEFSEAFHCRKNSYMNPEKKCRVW
Protocol: Enzymatic and mouse plasma degradation studies.
Enzymatic degradation (NEP 24.11). Stock solutions of the oligomers were prepared at a concentration of 400 μM in a solution of 50 mM HEPES buffer, 50 mM NaCl, 0.05% Tween-80, pH 8.0. Stock solution of NEP 24.11 was prepared at a concentration of 100 μg/mL in water. Stability of oligomers to NEP 24.11 was assessed by conducting protease reaction in a 96-well plates at 20° C. […] Each compound was also incubated in the absence of the enzyme (12 μL of HEPES buffer and 38 μL of oligomer). At the indicated time (1, 2, 4, 6 and 22 hours) an aliquot of 10 μL was removed from each experimental reaction and pipetting into 100 μL of 1% TFA solution to quench the reaction, (t=0 min was determined using the reaction without enzyme). A portion of the quenched reaction solution was analyzed by HPLC. The time course of peptide degradation was determined by integrating the area of each peak in a series of HPLC traces.

normal mice (C57BL/6J) [1] = assay: Intra peritoneal glucose tolerance test (IPGTT) in fasted normal mice; format: in vivo, mouse; conditions: for activity in IPGTT 5 min after dosing, 60 min after the glucose challenge: 65 min after dosing, compared to vehicle; for activity in IPGTT 5 min after dosing: glucose 2 g/kg i.p.
Protocol: In a second study, an IPGTT was performed 30 min after i.v. injections of 1, 14 and the vehicle (FIGS. 5B1 and 5B2). […] A further IPGTT study was done with a glucose challenge after 2 h of the dosing to investigate the prolong activity of hybrids 14, 22, and 23 (FIGS. 5C1 and 5C2).
IPGTT experiments in mice. After the acclimation period (at least 5 days), mice (male C57BL/6J mice (Charles River laboratories) (6 weeks old, 20-24 g)) were randomized into 6 groups (n=6/group) according to their body weight. The mice were fasted for 6 h prior being acutely treated via i.v. route (5 μg/mouse i.v. (200 μg/kg, 50 nmol/kg)) formulated at 20 μg/mL in PBS 1×. The IPGTTs were performed (glucose 2 g/kg i.p.) 5 min, 30 min, 2 h or 4 h after dosing and blood glucose was measured 30, 60, 90 and 120 min after the glucose challenge.

normal mice (C57BL/6J) [2] = assay: Blood glucose experiment in healthy mice; format: in vivo, mouse; set-up: key to In vivo activity (indicator): + = active; +++: + + + = more active; conditions: for In vivo activity (indicator): blood glucose, mice, i.v.; for time the decrease of blood glucose is preserved after dosing / effect on blood glucose concentration: fed normal mice, 5 μg/mouse i.v.; for effect on blood glucose concentration: monitored 6 h
Protocol: In the first study, we evaluated the effect of the analogues on the blood glucose concentration of normal mice (FIG. 4). The fed mice were treated with the analogues and their blood glucose concentration was monitored before and after dosing for 6 h. […] Indeed, a decrease of blood glucose concentration is observed after 30 min and the effect is preserved for 4 h after dosing.
Blood glucose experiment in healthy mice. After the acclimation period (at least 5 days), mice (male C57BL/6J mice (Charles River laboratories) (8 weeks old, 20-25 g)) were randomized into 10 groups (n=3/group) according to their body weight. They were acutely treated via i.v. route at 10 AM (5 μg/mouse). Blood glucose was measured before dosing and at 30 min, 1, 2, 4, 6 h after dosing in fed conditions.

[3] = molecular target: T1, mouse GLP-1 receptor endogenously expressed in βTC6 cells (Mus musculus, UniProt O35659); assay: cAMP production functional assay (HTRF), agonist activity at GLP-1R; format: cell-based; conditions: for Potency (%), percentage of potency (cAMP production) compared to GLP-1-G^2: Table 2; for Potency (%), percentage of potency compare to GLP-1-G^2: Table 1; for EC50: read-out: EC50 (nM), GLP-1R potency
T1 construct: host or cells: βTC6 cells
T1 sequence (O35659 22-463): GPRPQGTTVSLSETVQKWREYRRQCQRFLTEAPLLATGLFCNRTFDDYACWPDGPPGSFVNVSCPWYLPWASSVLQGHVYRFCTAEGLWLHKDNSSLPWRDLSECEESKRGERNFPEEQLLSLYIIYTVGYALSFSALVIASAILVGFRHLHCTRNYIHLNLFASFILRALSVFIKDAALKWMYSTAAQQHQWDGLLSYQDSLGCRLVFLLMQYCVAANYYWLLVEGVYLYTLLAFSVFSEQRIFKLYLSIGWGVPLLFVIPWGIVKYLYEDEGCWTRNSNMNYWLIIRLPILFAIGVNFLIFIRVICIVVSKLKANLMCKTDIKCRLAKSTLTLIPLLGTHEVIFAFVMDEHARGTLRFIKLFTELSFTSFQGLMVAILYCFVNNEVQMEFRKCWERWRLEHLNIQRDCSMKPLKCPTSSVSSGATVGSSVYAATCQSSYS
Protocol: The agonistic activity of these hybrids were obtained by functional assays using cells expressing the […] and by measuring the receptor-mediated cAMP produced (see supporting information).
In vitro pharmacology (EC50). […] Following incubation, the cells were lysed and the fluorescence acceptor (D2-labeled cAMP) and fluorescence donor (anti-cAMP antibody labeled with europium cryptate) were added.

[4] = pH 7.4
Protocol: Mouse plasma stability. […] The oligomer was then diluted 1/50 with a solution of plasma/PBS pH 7.4 (1:1) to afford a final concentration of 5 μM and incubated at 37° C. (4 μL of the stock solution was diluted with 196 μL of plasma/PBS, pH 7.4, 1:1) Each compound was also incubated in the absence of plasma (196 μL of H2O/PBS, pH 7.4, 1:1)). At the indicated time (20 min and 60 min) an aliquot of 70 μL was removed from each experimental reaction and pipetting into 175 μL of acetonitrile at 0° C. to quench the reaction, (t=0 min was determined using the reaction without plasma). The samples were frozen before analysis. The frozen sample were defrost, stirred with a vortex 5 min and finally centrifuged 5 min at 16° C. The supernatant was analyzed by LC-MS. The time course of oligomer degradation was determined by integrating the area of the peak in the extracted ion chromatogram.

[5] = receptor-mediated cAMP production, βTC6 cells

Structure (SMILES) | half-life at […] (NEP 24.11) [h] | activity in IPGTT 5 min after dosing, 60 min after the glucose challenge (normal mice (C57BL/6J) [1]) | IPGTT 2 h after dosing (normal mice (C57BL/6J) [1]; fasted mice, 200 μg/kg i.v.) | IPGTT 4 h after dosing (normal mice (C57BL/6J) [1]; fasted mice, 200 μg/kg i.v.) | activity in IPGTT 30 min after dosing (normal mice (C57BL/6J) [1]; fasted mice, 200 μg/kg i.v.) | activity in IPGTT 5 min after dosing (normal mice (C57BL/6J) [1]; fasted mice, 200 μg/kg i.v.) | In vivo activity (indicator) (normal mice (C57BL/6J) [2]) | time the decrease of blood glucose is preserved after dosing (normal mice (C57BL/6J) [2]) [h] | effect on blood glucose concentration (normal mice (C57BL/6J) [2]) | Potency (%), percentage of potency (cAMP production) compared to GLP-1-G^2 [3] [%] | Potency (%), percentage of potency compare to GLP-1-G^2 ([3]; cAMP production) [%] | EC50 [3, 5] [nM] | half-life (NEP 24.11) [h] | times less potent than GLP-1 ([3]; cAMP production) [times] | EC50 [3] [nM] | Mouse Plasma t1/2 [4] [h]
CC[C@H](C)[C@H](NC(=O)[C@H](Cc1ccccc1)NC(=O)NC[C@H](C)NC(=O)NC[C@H](C)NC(=O)NC[C@H](C)NC(=O)[C@H](CCC(N)=O)NC(=O)CNC(=O)[C@H](CCC(=O)O)NC(=O)[C@H](CC(C)C)NC(=O)[C@H](Cc1ccc(O)cc1)NC(=O)[C@H](CO)NC(=O)[C@H](CO)NC(=O)[C@@H](NC(=O)[C@H](CC(=O)O)NC(=O)[C@H](CO)NC(=O)[C@@H](NC(=O)[C@H](Cc1ccccc1)NC(=O)[C@@H](NC(=O)CNC(=O)[C@H](CCC(=O)O)NC(=O)CNC(=O)[C@@H](N)Cc1c[nH]cn1)[C@@H](C)O)[C@@H](C)O)C(C)C)C(=O)N[C@@H](C)C(=O)N[C@@H](Cc1c[nH]c2ccccc12)C(=O)N[C@@H](CC(C)C)C(=O)N[C@H](C(=O)N[C@@H](CCCCN)C(=O)NCC(=O)N[C@@H](CCCNC(=N)N)C(=O)NCC(N)=O)C(C)C [Compound 14, GG2[A^UA^UA^U]^18-21] (I: H-HGEGTFTSDVSSYLEGQ / II: FIAWLVKGRG-NH2; linker I:C-II:N via X1) | 4.9 | still active | good control of the blood glucose concentration | still active after 6 h of the treatment | full activity | active | +++ | 4 | improved efficacy | 6 | 6 | 4.1 |  |  |  | 
CC[C@H](C)[C@H](NC(=O)[C@H](Cc1ccccc1)NC(=O)NC[C@H](C)NC(=O)NC[C@H](C)NC(=O)NC[C@H](C)NC(=O)NC[C@H](C)NC(=O)NC[C@H](CCC(=O)O)NC(=O)NC[C@H](Cc1ccc(O)cc1)NC(=O)[C@H](Cc1ccc(O)cc1)NC(=O)[C@H](CO)NC(=O)[C@H](CO)NC(=O)[C@@H](NC(=O)[C@H](CC(=O)O)NC(=O)[C@H](CO)NC(=O)[C@@H](NC(=O)[C@H](Cc1ccccc1)NC(=O)[C@@H](NC(=O)CNC(=O)[C@H](CCC(=O)O)NC(=O)CNC(=O)[C@@H](N)Cc1c[nH]cn1)[C@@H](C)O)[C@@H](C)O)C(C)C)C(=O)N[C@@H](C)C(=O)N[C@@H](Cc1c[nH]c2ccccc12)C(=O)N[C@@H](CC(C)C)C(=O)N[C@H](C(=O)N[C@@H](CCCCN)C(=O)NCC(=O)N[C@@H](CCCNC(=N)N)C(=O)NCC(N)=O)C(C)C [Compound 23, GG2[Y^uE^uA^uA^uA^uA^u]^14-21] (I: H-HGEGTFTSDVSSY / II: FIAWLVKGRG-NH2; linker I:C-II:N via X2) | 6.1 |  | good control of the blood glucose concentration |  |  |  | +++ | 4 | improved efficacy | 7 | 7 | 3.4 |  |  |  | 
CC[C@H](C)[C@H](NC(=O)[C@H](Cc1ccccc1)NC(=O)[C@H](CCC(=O)O)NC(=O)[C@H](CCCCN)NC(=O)[C@H](C)NC(=O)[C@H](C)NC(=O)[C@H](CCC(N)=O)NC(=O)CNC(=O)[C@H](CCC(=O)O)NC(=O)[C@H](CC(C)C)NC(=O)[C@H](Cc1ccc(O)cc1)NC(=O)[C@H](CO)NC(=O)[C@H](CO)NC(=O)[C@@H](NC(=O)[C@H](CC(=O)O)NC(=O)[C@H](CO)NC(=O)[C@@H](NC(=O)[C@H](Cc1ccccc1)NC(=O)[C@@H](NC(=O)CNC(=O)[C@H](CCC(=O)O)NC(=O)CNC(=O)[C@@H](N)Cc1c[nH]cn1)[C@@H](C)O)[C@@H](C)O)C(C)C)C(=O)N[C@@H](C)C(=O)N[C@@H](Cc1c[nH]c2ccccc12)C(=O)N[C@@H](CC(C)C)C(=O)N[C@H](C(=O)N[C@@H](CCCCN)C(=O)NCC(=O)N[C@@H](CCCNC(=N)N)C(=O)NCC(N)=O)C(C)C [Compound 1, GLP-1-G^2, reference compound] |  | no more significant effect | IPGTT curve similar to the vehicle |  | inactive | active | + |  | decreased of blood glucose concentration after 30 min | 100 | 100 |  | 3.6 | 2.5 | 0.24 | 0.267
CC[C@H](C)[C@H](NC(=O)[C@H](Cc1ccccc1)NC(=O)[C@H](CCC(=O)O)NC(=O)[C@H](CCCCN)NC(=O)[C@H](C)NC(=O)NC[C@H](C)NC(=O)NC[C@H](C)NC(=O)NC[C@H](CCC(=O)O)NC(=O)[C@H](CC(C)C)NC(=O)[C@H](Cc1ccc(O)cc1)NC(=O)[C@H](CO)NC(=O)[C@H](CO)NC(=O)[C@@H](NC(=O)[C@H](CC(=O)O)NC(=O)[C@H](CO)NC(=O)[C@@H](NC(=O)[C@H](Cc1ccccc1)NC(=O)[C@@H](NC(=O)CNC(=O)[C@H](CCC(=O)O)NC(=O)CNC(=O)[C@@H](N)Cc1c[nH]cn1)[C@@H](C)O)[C@@H](C)O)C(C)C)C(=O)N[C@@H](C)C(=O)N[C@@H](Cc1c[nH]c2ccccc12)C(=O)N[C@@H](CC(C)C)C(=O)N[C@H](C(=O)N[C@@H](CCCCN)C(=O)NCC(=O)N[C@@H](CCCNC(=N)N)C(=O)NCC(N)=O)C(C)C [Compound 11, GG2[E^UA^UA^U]^15-18] (I: H-HGEGTFTSDVSSYL / II: AKEFIAWLVKGRG-NH2; linker I:C-II:N via X5) | 3.9 |  |  |  |  |  |  |  | no activity; also recorded: no effect | 13 | 13 |  |  |  |  | 
